Here are results for one compound from US20200078408A1, “GENE THERAPY” (Ospedale San Raffaele S.r.l., priority 2017, published 2020).

Data set [1] concerns B-ALL. In words: B-ALL challenge of mice reconstituted with Tie2-vector transduced HSPCs (Example 7). The settings on record: FIG. 31A. The format is in vivo, mouse. An excerpt:
We employed a transplantable model of B-acute lymphoblastic leukaemia (B-ALL) closely mimicking human Philadelphia-like B-ALL (Nucera, S. et al. (2016) Cancer Cell 29: 905-921), which readily induces a protumoral, immunosuppressive microenvironment characterised, for example, by the appearance of myeloid-derived suppressor cells, downregulation of MHC class II genes and upregulation of IL10 and PD1.
Eight weeks post transplant, upon reconstitution of the peripheral blood, animals received the B-ALL that is then followed by frequent blood collection. […]
We then combined the contemporaneous delivery of several immunostimulatory cytokines into the leukaemia microenvironment using the Tie2 vector backbone equipped with different transgene cargo. […] Vector copy number of the single vectors measured by specific quantitative PCR assays was rather low ranging from 0.1 to 0.3 in the reconstituted mice. […]
Furthermore, we evaluated the potential synergy of our gene therapy-based delivery of IFNy with other immunotherapeutic strategies including checkpoint inhibitors anti-CTLA-4 and anti-LAG-3 and the inhibitor of the IDO enzyme, 1-Methyl-Tryptophan (1-MT). […] Vector copy number of the single vectors measured by specific quantitative PCR assays was 0,72 for the Tig126/130a and 0,84 for the controls in the reconstituted mice. […]

Data set [2] has as its system macrophages, myeloid-derived suppressor cells, CD8+ T cells. In words: tumour microenvironment readouts at sacrifice in the B-ALL model (Example 7). The class given is in vivo, mouse. The settings on record: combined with gene therapy-based delivery of IFNγ (Tig126/130a).

With `Cn1cc(CC(N)C(=O)O)c2ccccc21` (stereo not shown) [1-MT, 1-Methyltryptophan], in data set [1] (combined with gene therapy-based delivery of IFNγ (Tig126/130a)), the disease progression result was “reduction of the disease progression”. For the same compound, the B-ALL progression result in data set [1] (monotherapy) is reported as “no beneficial effect”. Besides, the “MHC class II expression on splenic and bone marrow macrophages” value in data set [2] (FIG. 31) is listed as “significant increase”. The “cytotoxic CD8+ T cells in the spleen” value in data set [2] (FIG. 31D) is “increase”.
